One assay addresses Rhesus PDE2A3 (Macaca mulatta, UniProt B3VTJ2). As to the kind of experiment: PDE2 fluorescence polarization (IMAP FP) inhibition assay, rhesus enzyme. The format is biochemical, rhesus macaque. Summed up:
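Rhesus PDE2A3 came from lysate of transiently transfected AD293 cells, diluted to give 20% substrate conversion. Substrate was 50 nM FAM-cAMP with 1 uM cGMP activator in Tris pH 7.2/MgCl2 buffer, run 60 min at room temperature over 10-point 3-fold dilutions in 1% DMSO. Read-out was IMAP fluorescence polarization (mP) after ≥1 h binding.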
For orientation: Fluorescence polarisation rises when a labelled molecule tumbles more slowly, as on binding a larger partner.

In the next assay the target is human PDE2A1 (Homo sapiens (Human), UniProt O00408). Nature of the assay: IMAP FP PDE selectivity panel, human PDE2A1. The format is biochemical. The procedure, abridged: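 GST-tagged human PDE2A1 expressed in insect cells, run at room temperature for 60 min with 50 nM FAM-cAMP containing 1000 nM cGMP, pH 7.2 Tris/MgCl2 buffer. IMAP fluorescence polarization read after binding step.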
Sequence of human PDE2A1 (O00408 other isoform, or with tags, fused parts or gaps): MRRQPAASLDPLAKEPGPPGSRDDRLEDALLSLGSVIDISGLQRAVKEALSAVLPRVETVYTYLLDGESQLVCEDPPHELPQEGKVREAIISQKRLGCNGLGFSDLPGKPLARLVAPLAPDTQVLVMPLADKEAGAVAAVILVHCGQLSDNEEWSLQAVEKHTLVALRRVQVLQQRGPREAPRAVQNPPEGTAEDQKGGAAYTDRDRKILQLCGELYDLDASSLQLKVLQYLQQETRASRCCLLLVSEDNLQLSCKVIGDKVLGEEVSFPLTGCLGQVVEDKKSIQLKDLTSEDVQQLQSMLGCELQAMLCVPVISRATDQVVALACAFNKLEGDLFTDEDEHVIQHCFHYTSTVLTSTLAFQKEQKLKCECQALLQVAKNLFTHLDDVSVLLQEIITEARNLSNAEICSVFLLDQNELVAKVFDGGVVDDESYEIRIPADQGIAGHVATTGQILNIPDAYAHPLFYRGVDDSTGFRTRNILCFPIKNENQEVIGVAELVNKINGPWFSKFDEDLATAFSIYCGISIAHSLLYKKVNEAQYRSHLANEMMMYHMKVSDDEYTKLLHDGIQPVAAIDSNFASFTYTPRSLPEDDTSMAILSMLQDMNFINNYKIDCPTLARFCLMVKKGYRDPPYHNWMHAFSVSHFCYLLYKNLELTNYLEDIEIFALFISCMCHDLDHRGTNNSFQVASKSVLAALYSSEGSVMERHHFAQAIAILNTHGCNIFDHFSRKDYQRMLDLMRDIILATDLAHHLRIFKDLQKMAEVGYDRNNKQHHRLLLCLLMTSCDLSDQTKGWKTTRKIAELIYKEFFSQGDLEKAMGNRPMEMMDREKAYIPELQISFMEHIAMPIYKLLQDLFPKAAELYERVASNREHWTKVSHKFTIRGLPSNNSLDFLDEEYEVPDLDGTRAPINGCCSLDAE

Setting [1] is: Rhesus PDE2, Lab A, read-out: Rhesus PDE2 Ki (nM) - Lab A.
Where [2] appears, read: Rhesus PDE2, Lab B, read-out: Rhesus PDE2 Ki (nM) - Lab B.
The mark [3] stands for this setting: Human PDE2, Lab B, read-out: Human PDE2 Ki (nM) - Lab B.
Where [4] appears, read: Human PDE2, Lab A, read-out: Human PDE2 Ki (nM) - Lab A.

Where two headings read alike, the source gives them in different places.

Results on 26 molecules are retold here after patent US9815796B2 (Merck Sharp & Dohme Corp., priority 2013, dated 2017).

The term Ki denotes a measure of affinity in units of concentration, obtained from inhibition or displacement.

Sequence of Rhesus PDE2A3 (B3VTJ2 1-941): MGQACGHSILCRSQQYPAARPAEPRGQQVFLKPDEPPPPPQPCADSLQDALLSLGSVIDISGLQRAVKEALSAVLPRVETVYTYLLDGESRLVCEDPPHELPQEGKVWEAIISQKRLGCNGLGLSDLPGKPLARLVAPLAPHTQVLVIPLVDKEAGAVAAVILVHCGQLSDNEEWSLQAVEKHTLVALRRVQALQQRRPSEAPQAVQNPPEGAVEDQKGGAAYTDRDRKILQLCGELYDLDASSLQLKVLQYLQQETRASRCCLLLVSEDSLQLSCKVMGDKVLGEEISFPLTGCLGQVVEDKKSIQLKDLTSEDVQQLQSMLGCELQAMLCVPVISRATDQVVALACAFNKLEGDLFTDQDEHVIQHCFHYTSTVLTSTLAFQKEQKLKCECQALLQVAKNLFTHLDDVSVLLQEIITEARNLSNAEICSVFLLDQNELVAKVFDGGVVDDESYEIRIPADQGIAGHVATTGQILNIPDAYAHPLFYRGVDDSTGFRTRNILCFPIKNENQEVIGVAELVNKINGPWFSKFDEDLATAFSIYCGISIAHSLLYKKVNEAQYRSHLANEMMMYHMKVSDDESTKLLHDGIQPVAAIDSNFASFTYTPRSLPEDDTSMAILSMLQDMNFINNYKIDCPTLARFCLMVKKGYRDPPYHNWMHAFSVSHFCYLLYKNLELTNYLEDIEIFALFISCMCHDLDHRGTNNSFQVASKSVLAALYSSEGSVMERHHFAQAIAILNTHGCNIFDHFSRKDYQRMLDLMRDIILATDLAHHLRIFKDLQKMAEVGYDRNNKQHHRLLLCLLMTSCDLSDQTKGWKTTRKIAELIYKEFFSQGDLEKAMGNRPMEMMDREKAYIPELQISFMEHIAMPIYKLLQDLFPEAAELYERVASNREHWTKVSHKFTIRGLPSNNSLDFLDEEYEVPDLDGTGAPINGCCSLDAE

For the molecule `O=C(NC1(c2ccc(OC(F)(F)F)c(F)c2)CC1)c1cc(=O)[nH]c(-c2ncccn2)n1` [Example 81, N-{1-[3-fluoro-4-(trifluoromethoxy)phenyl]cyclopropyl}-6-oxo-1,6-dihydro-2,2′-bipyrimidine-4-carboxamide], the Ki at Rhesus PDE2A3 (setting [1]) was 23 nM; on Rhesus PDE2A3 (setting [2]), 17 nM; at human PDE2A1 (setting [3]), 25 nM.

Turning to `C[C@@H](NC(=O)c1cc(=O)[nH]c(-c2ncccn2)n1)c1ccc(C(F)(F)F)cc1F` [Example 99, N-[(1R)-1-[2-fluoro-4-(trifluoromethyl)phenyl]ethyl}-6-oxo-1,6-dihydro-2,2′-bipyrimidine-4-carboxamide], the Ki stood at 58 nM on Rhesus PDE2A3 (setting [1]) and 24 nM at human PDE2A1 (setting [4]).

Turning to `CC(NC(=O)c1cc(=O)[nH]c(-c2ccccc2)n1)c1ccc(C2CC2)cc1` (stereo not shown) [Example 164, N-[1-(4-cyclopropylphenyl)ethyl]-6-oxo-2-phenyl-1,6-dihydropyrimidine-4-carboxamide], the Ki at Rhesus PDE2A3 (setting [1]) was 9 nM; on human PDE2A1 (setting [4]), 9.4 nM.

Take `C[C@@H](NC(=O)c1cc(=O)[nH]c(-c2ccccc2)n1)c1ccc(C(F)(F)F)c(F)c1F` [Example 408, N-{(1R)-1-[2,3-difluoro-4-(trifluoromethyl)phenyl]ethyl}-6-oxo-2-phenyl-1,6-dihydropyrimidine-4-carboxamide]: the results for the Ki at Rhesus PDE2A3 (setting [2]) and at human PDE2A1 (setting [3]) were 17 nM and 11 nM, respectively.

As for `O=C(NC(CO)c1ccc(C(F)(F)F)cc1)c1cc(=O)[nH]c(C2CC2)n1` (stereo not shown) [Example 294, 2-cyclopropyl-N-{2-hydroxy-1-[4-(trifluoromethyl)phenyl]ethyl}-6-oxo-1,6-dihydropyrimidine-4-carboxamide], the Ki was found to be 69 nM at Rhesus PDE2A3 (setting [1]) and 46 nM at human PDE2A1 (setting [4]).

In the case of `Cc1nc(C(=O)N[C@@H](c2ccc(OC(F)(F)F)c(F)c2)C(C)C)cc(=O)[nH]1` [Example 38, N-{(1R)-1-[3-fluoro-4-(trifluoromethoxy)phenyl]-2-methylpropyl}-2-methyl-6-oxo-1,6-dihydropyrimidine-4-carboxamide], the Ki came to 7.8 nM on Rhesus PDE2A3 (setting [1]) and 5.6 nM at human PDE2A1 (setting [4]).

As to `CSCc1nc(C(=O)N[C@H](C)c2ccc(C(F)(F)F)cc2)cc(=O)[nH]1` [Example 36, 2-[(methylsulfanyl)methyl]-6-oxo-N-{(1R)-1-[4-(trifluoromethyl)phenyl]ethyl}-1,6-dihydropyrimidine-4-carboxamide], the Ki on Rhesus PDE2A3 (setting [1]) stood at 163 nM; at human PDE2A1 (setting [4]) it was 116 nM.

In the case of `CC(C)[C@@H](NC(=O)c1cc(=O)[nH]c(-c2ncccn2)n1)c1ccc(S(F)(F)(F)(F)F)cc1` [Example 265, N-{(1R)-2-methyl-1-[4-(pentafluoro-λ^6-sulfanyl)phenyl]propyl}-6-oxo-1,6-dihydro-2,2′-bipyrimidine-4-carboxamide], the inhibition constant Ki at Rhesus PDE2A3 (setting [1]) came out at 1.2 nM; on Rhesus PDE2A3 (setting [2]), 1.6 nM; at human PDE2A1 (setting [3]) it was 1.5 nM.

With `Cc1nc(C(=O)N[C@H](C)c2ccc(C(F)(F)F)c(Cl)c2)cc(=O)[nH]1` [Example 47, N-{(1R)-1-[3-chloro-4-(trifluoromethyl)phenyl]ethyl}-2-methyl-6-oxo-1,6-dihydropyrimidine-4-carboxamide], the Ki on Rhesus PDE2A3 (setting [1]) is 41 nM; on human PDE2A1 (setting [4]), 32 nM.

As for `CC[C@@H](NC(=O)c1cc(=O)[nH]c(C)n1)c1ccc(OC(F)(F)F)cc1` [Example 31, 2-methyl-6-oxo-N-{(1R)-1-[4-(trifluoromethoxy)phenyl]propyl}-1,6-dihydropyrimidine-4-carboxamide], the Ki at Rhesus PDE2A3 (setting [1]) is 28 nM; on human PDE2A1 (setting [4]), 15 nM.

For `CC(C)[C@@H](NC(=O)c1cc(=O)[nH]c(C2CC2)n1)c1ccc(C(F)(F)F)cc1` [Example 193, 2-cyclopropyl-N-{(1R)-2-methyl-1-[4-(trifluoromethyl)phenyl]propyl}-6-oxo-1,6-dihydropyrimidine-4-carboxamide], the Ki is 3.9 nM on Rhesus PDE2A3 (setting [1]) and 1.3 nM at human PDE2A1 (setting [4]).

For the molecule `COc1ccc(Cc2nc(C(=O)N[C@@H](c3ccc(C(F)(F)F)c(F)c3)C(C)(C)C)cc(=O)[nH]2)cc1F` [Example 508, 2-(3-fluoro-4-methoxybenzyl)-N-{(1R)-1-[3-fluoro-4-(trifluoromethyl)phenyl]-2,2-dimethylpropyl}-6-oxo-1,6-dihydropyrimidine-4-carboxamide], the Ki at Rhesus PDE2A3 (setting [2]) was 0.77 nM; at human PDE2A1 (setting [3]) it was 0.8 nM.

On to `CC(C)[C@@H](NC(=O)c1cc(=O)[nH]c(-c2ccccc2)n1)c1ccc(OC(F)(F)F)c(F)c1` [Example 127, N-{(1R)-1-[3-fluoro-4-(trifluoromethoxy)phenyl]-2-methylpropyl}-6-oxo-2-phenyl-1,6-dihydropyrimidine-4-carboxamide], for which the Ki on Rhesus PDE2A3 (setting [1]) was 3.6 nM; at Rhesus PDE2A3 (setting [2]), 4.7 nM; on human PDE2A1 (setting [4]), 2.2 nM; at human PDE2A1 (setting [3]) it was 3.9 nM.

On to `CC(C)(C)[C@@H](NC(=O)c1cc(=O)[nH]c(C2CC2)n1)c1ccc(C(F)(F)F)cc1F` [Example 445, 2-cyclopropyl-N-{(1R)-1-[2-fluoro-4-(trifluoromethyl)phenyl]-2,2-dimethylpropyl}-6-oxo-1,6-dihydropyrimidine-4-carboxamide], for which the Ki on Rhesus PDE2A3 (setting [2]) was 2.1 nM; at human PDE2A1 (setting [3]), 1.7 nM.

As to `COc1ccc(C(C)(C)c2nc(C(=O)N[C@@H](c3ccc(SC(F)(F)F)cc3)C3CC3)cc(=O)[nH]2)cc1` [Example 500, N-[(R)-cyclopropyl{4-[(trifluoromethyl)sulfanyl]phenyl}methyl]-2-[1-(4-methoxyphenyl)-1-methylethyl]-6-oxo-1,6-dihydropyrimidine-4-carboxamide], the Ki on Rhesus PDE2A3 (setting [2]) is 79 nM; at human PDE2A1 (setting [3]), 74 nM.

For `Cc1nc(C(=O)N[C@@H](c2ccc(C3CC3)cc2)C2CC2)cc(=O)[nH]1` [Example 50, N-[(R)-cyclopropyl(4-cyclopropylphenyl)methyl]-2-methyl-6-oxo-1,6-dihydropyrimidine-4-carboxamide], the figures for the Ki on Rhesus PDE2A3 (setting [1]), at Rhesus PDE2A3 (setting [2]) and on human PDE2A1 (setting [3]) were 8 nM, 11 nM and 8.1 nM, respectively.

On to `Cc1nc(C(=O)NC(C)c2ccc(C(F)(F)F)cc2Cl)cc(=O)[nH]1` (stereo not shown) [Example 18, N-{1-[2-chloro-4-(trifluoromethyl)phenyl]ethyl}-2-methyl-6-oxo-1,6-dihydropyrimidine-4-carboxamide], for which the Ki at Rhesus PDE2A3 (setting [1]) amounted to 472 nM; at human PDE2A1 (setting [4]), 314 nM.

With `C[C@@H](NC(=O)c1cc(=O)[nH]c(C2CC2)n1)c1ccc(S(F)(F)(F)(F)F)cc1` [Example 227, 2-cyclopropyl-6-oxo-N-{(1R)-1-[4-(pentafluoro-λ^6-sulfanyl)phenyl]ethyl}-1,6-dihydropyrimidine-4-carboxamide], the values for the Ki at Rhesus PDE2A3 (setting [1]) and on human PDE2A1 (setting [4]) were 12 nM and 6.5 nM, respectively.

For the molecule `CC[C@@H](NC(=O)c1cc(=O)[nH]c(-c2ccccc2)n1)c1ccc(C(F)(F)F)c(F)c1` [Example 420, N-{(1R)-1-[3-fluoro-4-(trifluoromethyl)phenyl]propyl}-6-oxo-2-phenyl-1,6-dihydropyrimidine-4-carboxamide], the Ki came out at 7.3 nM at Rhesus PDE2A3 (setting [2]) and 5.9 nM at human PDE2A1 (setting [3]).

Consider `COc1ccc(C(C)(C)c2nc(C(=O)N[C@@H](c3ccc(OC(F)(F)F)cc3)C3CC3)cc(=O)[nH]2)cc1` [Example 501, N-{(R)-cyclopropyl[4-(trifluoromethoxy)phenyl]methyl}-2-[1-(4-methoxyphenyl)-1-methylethyl]-6-oxo-1,6-dihydropyrimidine-4-carboxamide], for which the Ki on Rhesus PDE2A3 (setting [2]) amounted to 77 nM; at human PDE2A1 (setting [3]), 64 nM.

`CC(C)(C)[C@@H](NC(=O)c1cc(=O)[nH]c(C2CC2)n1)c1ccc(SC(F)(F)F)cc1` [Example 439, 2-cyclopropyl-N-[(1R)-2,2-dimethyl-1-{4-[(trifluoromethyl)sulfanyl]phenyl}pro-pyl]-6-oxo-1,6-dihydropyrimidine-4-carboxamide]: the Ki at Rhesus PDE2A3 (setting [2]) is 1 nM; at human PDE2A1 (setting [3]) it was 1.3 nM.

As to `CC[C@@H](NC(=O)c1cc(=O)[nH]c(Cc2ccc(OC)cc2)n1)c1ccc(SC(F)(F)F)cc1` [Example 476, 2-(4-methoxybenzyl)-6-oxo-N-[(1R)-1-{4-[(trifluoromethyl)sulfanyl]phenyl}propyl]-1,6-dihydropyrimidine-4-carboxamide], the Ki was 1.4 nM at Rhesus PDE2A3 (setting [2]) and 1.8 nM on human PDE2A1 (setting [3]).

Take `Cc1nc(C(=O)NC(C(=O)O)c2ccc(C(F)(F)F)cc2)cc(=O)[nH]1` (single isomer, unassigned) [Example 327]: the results for the Ki on Rhesus PDE2A3 (setting [1]) and at human PDE2A1 (setting [4]) were 4550 nM and 8100 nM, respectively.

With `CC(C)(C)[C@@H](NC(=O)c1cc(=O)[nH]c(-c2ncccn2)n1)c1ccc(OC(F)(F)F)cc1` [Example 461, N-{(1R)-2,2-dimethyl-1-[4-(trifluoromethoxy)phenyl]propyl}-6-oxo-1,6-dihydro-2,2′-bipyrimidine-4-carboxamide], the Ki at Rhesus PDE2A3 (setting [2]) stood at 7.5 nM; on human PDE2A1 (setting [3]), 7.8 nM.

As for `Cc1nc(C(=O)N[C@H](C)c2ccc(OC(F)(F)F)cc2F)cc(=O)[nH]1` [Example 21, N-{(1R)-1-[2-fluoro-4-(trifluoromethoxy)phenyl]ethyl}-2-methyl-6-oxo-1,6-dihydropyrimidine-4-carboxamide], the Ki was found to be 46 nM at Rhesus PDE2A3 (setting [1]) and 98 nM on human PDE2A1 (setting [4]).

For the molecule `O=C(N[C@@H](CC(F)(F)F)c1ccc(C(F)(F)F)cc1)c1cc(=O)[nH]c(-c2ccccc2)n1` [Example 366, 6-oxo-2-phenyl-N-{(1S)-3,3,3-trifluoro-1-[4-(trifluoromethyl)phenyl]propyl}-1,6-dihydropyrimidine-4-carboxamide], the figures for the Ki at Rhesus PDE2A3 (setting [1]), at Rhesus PDE2A3 (setting [2]) and at human PDE2A1 (setting [3]) were 132 nM, 458 nM and 386 nM, respectively.
